The text below walks through data of ChEMBL document CHEMBL3507680, “University of Dundee, Gates Library screen for HepG2 cell viability”.

The series in a line: Human HepG2 cell viability assay in 384 well format. It counts as toxicity, cell-based. Also noted: dose 125 nL, time 70.5 hour; cytotoxicity at 70.5 h: concentration not given beside the values. Conditions: HepG2 cells, read-out: Inhibition.

In the case of `O=C(Cn1cccnc1=O)NCC1Cc2ccccc2O1` (configuration not stated), the cytotoxicity at 70.5 h is -9.82%. With `CC1CN(C(=O)NCc2cnn(-c3ccc(F)cc3F)c2)CCO1` (configuration not stated), the cytotoxicity at 70.5 h was -11.2%. Next, `CCNC(=O)NCc1cnn(-c2ccc(F)cc2F)c1`: -10.2%; `Cc1ccsc1C(Cc1ccccc1)NC(=O)CNC(=O)C1CC1` (configuration not stated): -3.91%; `CCNC(=O)CCC(=O)NC(Cc1ccccc1)c1sccc1C` (configuration not stated): -7.03%.

For `CC(=O)c1ccc(C(=O)Nc2ccnc(N(C)C)n2)cc1`, the cytotoxicity at 70.5 h worked out at 6.64%. With `CSCC(=O)Nc1ncc(I)cc1C`, the cytotoxicity at 70.5 h is 11.6%.

`COc1cccc(CC(=O)N2CCN(c3cccc(C)c3)C(C)C2)c1` (configuration not stated): the cytotoxicity at 70.5 h was found to be 0.115%. For the compound `Clc1ccc(C2(NCc3noc(C4CC4)n3)CCC2)cc1`, the cytotoxicity at 70.5 h was -5.74%.

On to `O=C1C(N2CCOC3(CCCC3)C2)CCN1C1CC1` (configuration not stated), for which the cytotoxicity at 70.5 h was -1.76%. As for `COc1ccc(C2(NCc3noc(C4CC4)n3)CCOCC2)cc1`, the cytotoxicity at 70.5 h is -12.1%. Next, `CC(C)CC(NC(=O)c1ccc[nH]1)C(=O)N1CCC(CO)CC1` (configuration not stated): -11.2%. Regarding `CC(C)CC(C)NCc1cccnc1N1CCOCC1` (configuration not stated), the cytotoxicity at 70.5 h came to 19.8%. The figure for `O=C(c1ccc(-n2cc(Br)cn2)cc1)N1CCN(c2cnccn2)CC1` is -10%; for `Cc1ccnn1-c1ccc(C(=O)N2CCN(c3cnccn3)CC2)cc1` it is -0.832%.

On to `O=C(c1ccc(-n2ccnc2)cc1)N1CCN(c2cnccn2)CC1`, for which the cytotoxicity at 70.5 h stood at 2.67%. Consider `CC(SCC(=O)NC(N)=O)c1ccc(Cl)cc1` (configuration not stated), for which the cytotoxicity at 70.5 h is -9.52%. Take `CN1CCN(CCCNC(=O)C2CCCCC2)CC1`: the cytotoxicity at 70.5 h was 12.1%.

Take `O=C(Nc1ccc(F)cc1)C1CCN(Cc2noc(C3CC3)n2)CC1`: the cytotoxicity at 70.5 h is -7.96%. The figure for `CCNC(=O)CCS(=O)(=O)Cc1ccn(-c2cccc(F)c2)n1` is 2.48%.

Consider `N#Cc1ccc(C(=O)N(C2CC2)C2CC(=O)NC2=O)cc1` (configuration not stated), for which the cytotoxicity at 70.5 h was -8.96%. Next, `CCOC(=O)c1ccc(NC(=O)c2cc3c([nH]c2=O)CCCC3)cc1`: -14.4%. As to `O=C1CC(N(C(=O)c2ccccc2Br)C2CC2)C(=O)N1` (configuration not stated), the cytotoxicity at 70.5 h worked out at 2.23%. The figure for `CC1CCN(C)c2ccccc2N1C(=O)c1ccnc(-n2cncn2)c1` (configuration not stated) is 2.2%; for `CC(=O)c1c(C)cc(C)c(Cn2ccnc2S(C)(=O)=O)c1C` it is 6.42%; for `O=C(c1ccc(-n2cncn2)cc1)N1CCN(c2cnccn2)CC1` it is -9.5%. The figure for `Cc1cnn(Cc2ccc(NC(=O)N[C@@H]3C=C[C@H](CO)C3)cc2)c1` is -15.1%. The figure for `CCCN1CCCN(c2ccc(-n3ccc(C)n3)nn2)CC1` is -7.57%; for `Cc1ccn(-c2ccc(N3CCCN(Cc4ccccc4)CC3)nn2)n1` it is 2.19%; for `CC1CN(C(=O)c2ccnc(-n3cncn3)c2)c2ccccc2S1` (configuration not stated) it is -0.177%. With `Cn1ncc(C(=O)OCC2CC(=O)N(c3ccccc3)C2)c1C(F)F` (configuration not stated), the cytotoxicity at 70.5 h was -9.29%. Turning to `CC(O)CC(C)(C)CNC(=O)Nc1cnn(-c2ccccc2F)c1` (configuration not stated), the cytotoxicity at 70.5 h is -4.35%. Next, `Cc1cccc2ncnc(N3CCOC(C)C3)c12` (configuration not stated): 2.61%; `Cc1c(C(=O)OCC2CC(=O)N(c3ccccc3)C2)cnn1C(C)C` (configuration not stated): -0.00833%; `Cn1cc(C2(C)CN(Cc3ccc(O)c(Cl)c3)CCO2)cn1` (configuration not stated): -6.24%. For `Cn1cc(C2(C)CN(Cc3ccc(Cl)c(F)c3)CCO2)cn1` (configuration not stated), the cytotoxicity at 70.5 h is -7.47%. The figure for `O=C(NCC1CC(=O)N(CCc2ccccc2)C1)c1ccc[nH]1` (configuration not stated) is -8.75%; for `Cc1cc(CN(C)C(=O)NCc2ccccn2)no1` it is -1.24%; for `Cc1cc(CN(C)C(=O)NCc2ccnc(OC3CCCC3)c2)no1` it is -3.22%. The figure for `O=C(NCCNc1ncccn1)N1CC=C(c2ccccc2)CC1` is -4.56%; for `O=C(NCCNc1cnccn1)N1CCc2ccccc2C1` it is -13.1%.

As to `COc1c(C)cnc(CNC(=O)c2cc(C)nc3onc(C)c23)c1C`, the cytotoxicity at 70.5 h is -5.39%.

Turning to `O=C(NCc1ccccc1CO)Nc1ccc2c(c1)CCO2`, the cytotoxicity at 70.5 h was 7.29%. Next, `COc1c(CNCc2ccc(Cn3cccn3)cc2)c(C)nn1C`: 3.44%; `O=C(NCCNc1cnccn1)N1CC=C(c2ccc(O)cc2)CC1`: 2.47%; `N#Cc1ccccc1N1CCN(CCC(=O)N2CCOCC2)CC1`: -3.68%. The figure for `N#Cc1ccccc1N1CCN(C(=O)NCC(=O)N2CCCC2)CC1` is -0.138%. The figure for `COC(=O)c1cc(NS(=O)(=O)c2cn(C)cn2)c(F)cc1F` is -2.67%. On to `O=C(CCCc1ccccn1)N1CCC(Nc2cccnn2)CC1`, for which the cytotoxicity at 70.5 h is -0.523%. The figure for `CN(Cc1ccc(Cl)cc1)S(=O)(=O)N(C)Cc1cnn(C)c1` is -1.12%; for `Cc1ccnc(N2CCCC(c3noc(C(C)C)n3)C2)n1` (configuration not stated) it is 6.3%; for `CC(C)c1nc(C2CCCN(c3nccc(N4CCCC4)n3)C2)no1` (configuration not stated) it is -2.95%. On to `CCc1ccc(C(=O)N2CCCC2c2nnc3n2CCCCC3)o1` (configuration not stated), for which the cytotoxicity at 70.5 h worked out at 3.58%. The figure for `CC(C)c1nnc2n1CC(CNCc1cccnc1)CC2` (configuration not stated) is -6.45%.

Consider `Cc1ncsc1CCN1CCC(N(C)Cc2noc(C(C)C)n2)C1` (configuration not stated), for which the cytotoxicity at 70.5 h stood at 6.17%. For `COCc1csc(NC(=O)NCc2ccccn2)n1`, the cytotoxicity at 70.5 h turned out to be 5.11%.

As to `Cc1c(NCC(C)(C)C)cccc1C(=O)N(C)Cc1ncnn1C`, the cytotoxicity at 70.5 h stood at 21%.

As to `Cc1cc(NC(=O)CNC(C)(C)c2ccccc2)on1`, the cytotoxicity at 70.5 h turned out to be 17.8%.

`O=C(CN1CCN(c2ccnc3c(F)ccc(F)c23)CC1)N1CCCC1`: the cytotoxicity at 70.5 h amounted to 8.2%. `O=C(c1cccnc1OCC(F)(F)F)N1CCCn2ncnc21`: the cytotoxicity at 70.5 h turned out to be 14.8%. Regarding `O=C(c1ccc(-c2ccccc2)[nH]c1=O)N1CCCn2ncnc21`, the cytotoxicity at 70.5 h was -9.78%. The figure for `CC(C)COCCC(=O)Nc1c(-c2ccc(F)cc2)ncn1C` is -2.98%. The figure for `Cc1ncc2c(n1)CN(CC(O)COc1ccc(C#N)cc1)CC2` (configuration not stated) is -3.74%. For `Cn1cnc(-c2ccc(F)cc2)c1NC(=O)CCNC(=O)C(C)(C)C`, the cytotoxicity at 70.5 h was -7.61%. Turning to `CCNC(=O)C1CCCN1S(=O)(=O)c1sc(=O)[nH]c1C` (configuration not stated), the cytotoxicity at 70.5 h is -4.2%.

As to `CNC(=O)c1cccc(CCNc2ncc(Br)cn2)c1`, the cytotoxicity at 70.5 h was 7.32%. In the case of `Fc1ccc(OC2CCN(Cc3nnc(-c4ccco4)o3)CC2)cc1`, the cytotoxicity at 70.5 h was 18.9%. Consider `COc1ncc(C)cc1NC(=O)COCC(F)(F)F`, for which the cytotoxicity at 70.5 h amounted to 2.73%. Turning to `COc1ncc(C)cc1NC(=O)CCc1ccccn1`, the cytotoxicity at 70.5 h is 17.6%. For `CCc1csc(NC(=O)NCc2ccccn2)n1`, the cytotoxicity at 70.5 h is -2.4%. `COCc1csc(NC(=O)NCc2ncccc2C)n1`: the cytotoxicity at 70.5 h stood at 0.235%. The figure for `O=C(Nc1ccccc1OCC(F)F)N[C@@H]1C=C[C@H](CO)C1` is 4.97%; for `NC(=O)c1cnc(NC2CCC(c3ccccc3)CC2)c(Cl)c1` (configuration not stated) it is -2.31%; for `CN(c1ncc(C(N)=O)cc1Cl)C1CCC(c2ccccc2)CC1` (configuration not stated) it is -3.58%. The figure for `CC(COc1ccccc1F)NC(=O)N[C@@H]1C=C[C@H](CO)C1` (some centres not stated) is -7.04%.

On to `CN(Cc1ncnn1C)C(=O)c1ccccc1NCc1ccccc1`, for which the cytotoxicity at 70.5 h amounted to 8.8%. Next, `Cc1nnc(CN2CCC(Oc3ccc(C)c(C)c3)CC2)o1`: -4.89%. For the compound `COc1ccc(-c2cnc(CN3CCCC3CO)o2)cc1` (configuration not stated), the cytotoxicity at 70.5 h came out at 7.93%. Next, `CC(CNS(N)(=O)=O)c1ccc(F)c(F)c1` (configuration not stated): 3.38%; `COCCOc1ncccc1C(=O)N1CCCn2ncnc21`: -5.4%; `COCCN(Cc1ccccc1)c1cc(C)ncn1`: -6.25%. In the case of `COCc1nc(C(=O)N(Cc2ccccc2)CC(C)C(=O)O)cs1` (configuration not stated), the cytotoxicity at 70.5 h was -4.63%. The figure for `COCCN(CC(C)C)c1cc(C)ncn1` is 6.75%; for `COc1cccc2[nH]cc(CCNC(=O)N3CCCC3CO)c12` (configuration not stated) it is 2.83%. Next, `OCC1CCCN1c1cc(NCCc2ccccn2)ncn1` (configuration not stated): 14.5%; `Cn1ccnc1CN(Cc1cccnc1)CC1CCCO1` (configuration not stated): -8.2%.

For the compound `CN(C)C(=O)C1CCCN1CCCNC(=O)Cc1ccccc1F` (configuration not stated), the cytotoxicity at 70.5 h was -16.1%.

Take `CCCS(=O)(=O)NC1CCN(c2cccc(F)c2C#N)CC1`: the cytotoxicity at 70.5 h is -19.1%. On to `O=C(NCCNc1ncccn1)N1CCCC1c1ccncc1` (configuration not stated), for which the cytotoxicity at 70.5 h is 1.65%. For the compound `COc1ccc(C2CCCN2C(=O)NCCNc2ccccn2)cc1` (configuration not stated), the cytotoxicity at 70.5 h is -19.3%.

Take `O=C(NCC1CC1)C1CSCN1S(=O)(=O)c1ccccc1` (configuration not stated): the cytotoxicity at 70.5 h is -15.1%.

`Cc1cc(N2CCC(N(C)C(=O)c3ccc(C#N)cc3)CC2)nc(C)n1`: the cytotoxicity at 70.5 h is -7.65%. The figure for `Cc1cc(N2CCC(N(C)C(=O)c3ccccc3F)CC2)nc(C)n1` is 15.8%; for `OCC1CCCN1c1cc(NCc2cc3ccccc3o2)ncn1` (configuration not stated) it is -18.3%; for `OCC1CCCN1c1cc(NCCc2ccsc2)ncn1` (configuration not stated) it is -15.1%. As for `OCC1CCCN1c1cc(NCCNc2cccnn2)ncn1` (configuration not stated), the cytotoxicity at 70.5 h was -6.7%. As for `CSCC(CCO)NC(=O)Nc1ccc(Br)cc1` (configuration not stated), the cytotoxicity at 70.5 h is -11.8%. With `Cc1cn(-c2ccccc2)nc1NS(=O)(=O)c1ccc(C(=O)O)cc1F`, the cytotoxicity at 70.5 h is -18%. The figure for `Cc1cn(-c2ccccc2)nc1NS(=O)(=O)c1ccc(C(=O)O)cc1` is 10.8%. Next, `N#Cc1cc(F)c(N2CCC(NS(=O)(=O)c3cccs3)CC2)c(F)c1`: -20%. In the case of `O=C(NCCCn1nc2ccccn2c1=O)NCC(C1CC1)C1CC1`, the cytotoxicity at 70.5 h is -12.3%.

Consider `O=C(NCCCn1nc2ccccn2c1=O)NC(C1CC1)C1CC1`, for which the cytotoxicity at 70.5 h was -16.5%.
